Our source for the DC50 values is patent US12643903B2, “Bifunctional compounds for degradation of EGFR and related methods of use” (BeiGene, Ltd., priority 2020, dated 2026).

Holding throughout (type): cell-based
Settings in all cases: 16 h treatment, EGFR degradation by HTRF

The test system of assay [1] is EGFR DTC. As to the kind of experiment: Cell Degradation 3: EGFR degradation in BaF3 cells (DTC), HTRF assay. The procedure, abridged:
(§1)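 BaF3 cells expressing EGFR (LTC triple mutant C797S/L858R/T790M or DTC) exposed to compounds for 16 h, 8 doses from 4-fold dilution, 0.2% DMSO. Residual EGFR quantified by HTRF in lysates (triple mutant lysate diluted 1:1); DC50 from four-parameter logistic fit.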

The target in assay [2] is T1, EGFR LTC (Homo sapiens, UniProt P00533, C797S/L858R/T790M).
T1 construct: expressed in transfected cells; host or cells: BaF3
As to the kind of experiment: Cell Degradation 3: EGFR degradation in BaF3 cells (LTC), HTRF assay. An outline of the steps: as §1

For assay [3], the target named is T2, EGFR (Homo sapiens, UniProt P00533, DEL746-750).
T2 construct: endogenous in cells; host or cells: HCC827
Briefly: Cell Degradation 2: EGFR degradation in HCC827 cells, HTRF assay. The procedure, abridged:
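Compound-treated HCC827 cells were lysed after 16 h and EGFR measured by HTRF (337 nm excitation, 665/620 nm emission) after overnight antibody incubation at room temperature. DC50 came from a four-parameter fit of percent inhibition against compound concentration.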

Assay [4] has as its target T3, EGFR (Homo sapiens, UniProt P00533, L858R/T790M).
T3 construct: endogenous in cells; host or cells: H1975
Briefly: Cell Degradation 1: EGFR degradation in H1975 cells, HTRF assay. The procedure, abridged:
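H1975 cells treated with compound for 16 h, lysed 1 h at room temperature. EGFR measured by HTRF after overnight antibody incubation (665/620 nm). DC50 from four-parameter logistic fit of percent inhibition against concentration.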

T2 sequence (P00533 with tags, fused parts or gaps DEL746-750): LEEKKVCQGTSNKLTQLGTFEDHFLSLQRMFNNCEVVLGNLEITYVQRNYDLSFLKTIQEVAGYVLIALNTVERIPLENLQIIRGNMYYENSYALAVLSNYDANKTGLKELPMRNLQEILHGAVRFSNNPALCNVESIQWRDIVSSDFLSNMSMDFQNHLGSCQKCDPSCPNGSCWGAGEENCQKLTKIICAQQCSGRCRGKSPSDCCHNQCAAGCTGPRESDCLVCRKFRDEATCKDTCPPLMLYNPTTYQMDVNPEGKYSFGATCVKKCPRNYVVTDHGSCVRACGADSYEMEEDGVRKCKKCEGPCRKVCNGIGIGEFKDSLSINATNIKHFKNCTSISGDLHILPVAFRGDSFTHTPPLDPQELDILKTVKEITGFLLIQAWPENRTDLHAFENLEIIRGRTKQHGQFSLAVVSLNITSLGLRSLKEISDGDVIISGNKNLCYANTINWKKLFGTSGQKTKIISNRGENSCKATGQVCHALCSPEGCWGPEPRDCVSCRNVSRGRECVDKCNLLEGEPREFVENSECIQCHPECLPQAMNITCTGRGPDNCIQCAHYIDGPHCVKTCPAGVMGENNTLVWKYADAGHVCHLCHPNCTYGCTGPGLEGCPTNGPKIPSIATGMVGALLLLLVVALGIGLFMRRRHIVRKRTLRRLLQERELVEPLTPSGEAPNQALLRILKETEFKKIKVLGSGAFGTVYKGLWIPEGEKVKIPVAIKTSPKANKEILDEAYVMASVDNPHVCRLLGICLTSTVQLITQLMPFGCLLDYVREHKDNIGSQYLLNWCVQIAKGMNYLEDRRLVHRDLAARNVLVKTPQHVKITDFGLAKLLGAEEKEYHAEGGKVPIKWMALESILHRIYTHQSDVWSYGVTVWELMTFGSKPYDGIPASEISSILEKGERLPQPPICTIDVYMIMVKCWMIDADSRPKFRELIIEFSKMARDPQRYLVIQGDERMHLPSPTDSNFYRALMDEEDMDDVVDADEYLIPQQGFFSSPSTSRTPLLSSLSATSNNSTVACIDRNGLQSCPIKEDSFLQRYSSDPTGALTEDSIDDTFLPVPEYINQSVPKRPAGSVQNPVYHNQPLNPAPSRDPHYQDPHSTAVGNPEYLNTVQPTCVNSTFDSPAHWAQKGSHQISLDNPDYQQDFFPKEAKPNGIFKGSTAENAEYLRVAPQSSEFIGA
T2 sequence (Q96SW2 whole entry partner): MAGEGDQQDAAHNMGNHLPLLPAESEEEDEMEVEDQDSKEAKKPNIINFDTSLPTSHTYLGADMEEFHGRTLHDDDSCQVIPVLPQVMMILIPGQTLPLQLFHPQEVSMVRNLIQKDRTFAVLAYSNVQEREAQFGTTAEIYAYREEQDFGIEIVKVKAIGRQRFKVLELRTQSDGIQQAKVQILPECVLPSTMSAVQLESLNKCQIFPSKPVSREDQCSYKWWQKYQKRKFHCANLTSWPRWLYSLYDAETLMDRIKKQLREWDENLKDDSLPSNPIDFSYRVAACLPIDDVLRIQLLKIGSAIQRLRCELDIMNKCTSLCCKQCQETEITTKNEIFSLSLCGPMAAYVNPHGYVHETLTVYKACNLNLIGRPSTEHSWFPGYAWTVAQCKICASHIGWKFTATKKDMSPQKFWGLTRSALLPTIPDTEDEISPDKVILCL
T3 sequence (P00533 25-1210 T790M/L858R): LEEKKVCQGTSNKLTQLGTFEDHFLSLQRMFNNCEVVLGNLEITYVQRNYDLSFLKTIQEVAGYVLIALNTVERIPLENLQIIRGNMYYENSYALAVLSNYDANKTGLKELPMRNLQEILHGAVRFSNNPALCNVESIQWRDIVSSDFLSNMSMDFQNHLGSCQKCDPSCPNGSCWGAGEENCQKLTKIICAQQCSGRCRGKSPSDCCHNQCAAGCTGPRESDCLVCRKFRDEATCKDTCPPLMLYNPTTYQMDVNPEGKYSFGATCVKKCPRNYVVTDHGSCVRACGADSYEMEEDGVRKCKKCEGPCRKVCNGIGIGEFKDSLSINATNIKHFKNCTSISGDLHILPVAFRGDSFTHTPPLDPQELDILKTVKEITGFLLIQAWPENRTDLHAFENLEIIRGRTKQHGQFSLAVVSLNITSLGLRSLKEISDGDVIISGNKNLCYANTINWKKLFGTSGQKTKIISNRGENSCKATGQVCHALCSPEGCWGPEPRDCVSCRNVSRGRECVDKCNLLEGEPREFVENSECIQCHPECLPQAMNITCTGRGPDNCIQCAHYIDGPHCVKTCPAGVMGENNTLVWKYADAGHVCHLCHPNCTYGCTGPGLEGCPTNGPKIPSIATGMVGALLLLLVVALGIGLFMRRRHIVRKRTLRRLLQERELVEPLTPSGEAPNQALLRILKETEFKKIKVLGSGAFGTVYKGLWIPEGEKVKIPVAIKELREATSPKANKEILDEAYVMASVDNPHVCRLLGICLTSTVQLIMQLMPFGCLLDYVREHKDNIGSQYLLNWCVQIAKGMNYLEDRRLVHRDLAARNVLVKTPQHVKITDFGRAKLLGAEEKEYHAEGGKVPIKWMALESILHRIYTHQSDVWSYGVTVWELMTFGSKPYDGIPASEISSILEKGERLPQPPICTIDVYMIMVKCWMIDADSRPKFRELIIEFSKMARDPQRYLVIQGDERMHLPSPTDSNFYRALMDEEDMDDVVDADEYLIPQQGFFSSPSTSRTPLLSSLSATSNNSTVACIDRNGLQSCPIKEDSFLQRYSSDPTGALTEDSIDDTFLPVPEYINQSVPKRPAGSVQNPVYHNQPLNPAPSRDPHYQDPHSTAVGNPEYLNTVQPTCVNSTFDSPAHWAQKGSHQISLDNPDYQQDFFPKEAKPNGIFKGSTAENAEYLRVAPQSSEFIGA
T1 sequence (P00533 25-1210 T790M/C797S/L858R): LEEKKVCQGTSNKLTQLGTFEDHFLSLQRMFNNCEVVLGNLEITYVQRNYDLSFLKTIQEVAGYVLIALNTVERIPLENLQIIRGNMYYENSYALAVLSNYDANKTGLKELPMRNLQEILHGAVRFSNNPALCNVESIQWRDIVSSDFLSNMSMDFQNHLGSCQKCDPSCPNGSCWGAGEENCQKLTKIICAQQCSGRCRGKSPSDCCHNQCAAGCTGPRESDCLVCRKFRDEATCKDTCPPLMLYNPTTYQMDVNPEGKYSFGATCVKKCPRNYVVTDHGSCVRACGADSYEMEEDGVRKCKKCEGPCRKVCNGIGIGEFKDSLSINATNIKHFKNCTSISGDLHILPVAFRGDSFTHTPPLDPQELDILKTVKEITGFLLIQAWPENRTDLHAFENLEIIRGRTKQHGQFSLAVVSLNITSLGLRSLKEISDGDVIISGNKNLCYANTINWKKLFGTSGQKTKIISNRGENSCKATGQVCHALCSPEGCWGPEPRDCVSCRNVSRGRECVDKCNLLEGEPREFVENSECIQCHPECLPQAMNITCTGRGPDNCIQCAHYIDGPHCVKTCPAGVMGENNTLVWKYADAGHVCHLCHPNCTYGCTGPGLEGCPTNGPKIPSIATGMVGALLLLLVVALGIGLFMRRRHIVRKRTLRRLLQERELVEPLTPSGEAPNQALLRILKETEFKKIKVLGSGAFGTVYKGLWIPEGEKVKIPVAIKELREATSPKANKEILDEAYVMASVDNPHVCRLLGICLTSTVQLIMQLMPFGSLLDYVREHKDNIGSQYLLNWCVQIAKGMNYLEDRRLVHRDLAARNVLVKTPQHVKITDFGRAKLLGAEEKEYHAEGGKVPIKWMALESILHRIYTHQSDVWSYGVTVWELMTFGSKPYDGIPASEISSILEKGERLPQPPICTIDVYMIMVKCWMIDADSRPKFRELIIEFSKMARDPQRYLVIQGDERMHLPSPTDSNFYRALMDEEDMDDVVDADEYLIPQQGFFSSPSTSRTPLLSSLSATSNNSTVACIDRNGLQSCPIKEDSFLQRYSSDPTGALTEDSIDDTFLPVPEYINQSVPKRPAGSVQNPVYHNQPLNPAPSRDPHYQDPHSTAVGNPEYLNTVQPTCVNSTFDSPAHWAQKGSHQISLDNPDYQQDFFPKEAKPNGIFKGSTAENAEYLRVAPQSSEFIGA

Regarding `COc1cc(N2CCC(N3CCN(C[C@H]4CCN(c5ccc6c(c5)CN(C5CCC(=O)NC5=O)C6=O)C4)CC3)CC2)c(C)cc1Nc1ncc(Br)c(Nc2cccc3c2N(S(C)(=O)=O)CC3)n1` (stereo partly drawn) [Example 168, 3-(5-((R)-3-((4-(1-(4-((5-bromo-4-((1-(methylsulfonyl)indolin-7-yl)amino)pyrimidin-2-yl)amino)-5-methoxy-2-methylphenyl)piperidin-4-yl)piperazin-1-yl)methyl)pyrrolidin-1-yl)-1-oxoisoindolin-2-yl)piperidine-2,6-dione], the DC50 in assay [1] was determined as 14 nM; in assay [2] it was 25 nM; in assay [3] it was 2 nM; in assay [4], 7 nM.
As to `COc1cc(N2CCC(N3CCN(C(=O)[C@H]4CCN(c5ccc6c(c5)C(=O)N(C5CCC(=O)NC5=O)C6=O)C4)CC3)CC2)ccc1Nc1ncc(Cl)c(Nc2cccc3c2N(S(C)(=O)=O)CC3)n1` (stereo partly drawn) [Example 87, 5-((S)-3-(4-(1-(4-((5-chloro-4-((1-(methylsulfonyl)indolin-7-yl)amino)pyrimidin-2-yl)amino)-3-methoxyphenyl)piperidin-4-yl)piperazine-1-carbonyl)pyrrolidin-1-yl)-2-(26-dioxopiperidin-3-yl)isoindoline-1,3-dione], the DC50 in assay [1] amounted to 2.4 nM; in assay [2], 16.5 nM; in assay [3] it was 3.1 nM; in assay [4], 3.5 nM.
With `COc1cc(N2CCC(N3CCN(C(=O)[C@@H]4CCN(c5ccc6c(c5)C(=O)N(C5CCC(=O)NC5=O)C6=O)C4)CC3)CC2)ccc1Nc1ncc(Cl)c(Nc2cccc3c2N(S(C)(=O)=O)CC3)n1` (stereo partly drawn) [Example 88, 5-((R)-3-(4-(1-(4-((5-chloro-4-((1-(methylsulfonyl)indolin-7-yl)amino)pyrimidin-2-yl)amino)-3-methoxyphenyl)piperidin-4-yl)piperazine-1-carbonyl)pyrrolidin-1-yl)-2-(2,6-dioxopiperidin-3-yl)isoindoline-1,3-dione], the DC50 stood at 15.6 nM in assay [1], 43.3 nM in assay [2], 2.7 nM in assay [3] and 4.2 nM in assay [4].
Consider `COc1cc(N2CCC(N3CCN(CCc4cc(F)c(C5CCC(=O)NC5=O)c(F)c4)CC3)CC2)c(C)cc1Nc1nc(Nc2cccc3c2N(S(C)(=O)=O)CC3)c2cc[nH]c2n1` (centres unmarked) [Example 163, 3-(2,6-difluoro-4-(2-(4-(1-(5-methoxy-2-methyl-4-((4-((1-(methylsulfonyl)indolin-7-yl)amino)-7H-pyrrolo[2,3-d]pyrimidin-2-yl)amino)phenyl)piperidin-4-yl)piperazin-1-yl)ethyl)phenyl)piperidine-2,6-dione], for which the DC50 in assay [1] is 49 nM; in assay [2], 40 nM; in assay [3], 20 nM; in assay [4], 3 nM.
Regarding `COc1cc(N2CCN(C3CCN(CCc4ccc(C5CCC(=O)NC5=O)cc4)CC3)CC2)ccc1Nc1ncc(Cl)c(Nc2cccc3c2N(S(C)(=O)=O)CC3)n1` (centres unmarked) [Example 38, 3-(4-(2-(4-(4-(4-((5-chloro-4-((1-(methylsulfonyl)indolin-7-yl)amino)pyrimidin-2-yl)amino)-3-methoxyphenyl)piperazin-1-yl)piperidin-1-yl)ethyl)phenyl)piperidine-2,6-dione], the DC50 was 176 nM in assay [1], 230 nM in assay [2], 9.7 nM in assay [3] and 9.8 nM in assay [4].
On to `CS(=O)(=O)N1CCc2cccc(Nc3nc(Nc4ccc(N5CCC(N6CCN(CCC7CCN(c8ccc(C9CCC(=O)NC9=O)c(F)c8)CC7)CC6)CC5)c(F)c4)ncc3Cl)c21` (centres unmarked) [Example 80, 3-(4-(4-(2-(4-(1-(4-((5-chloro-4-((1-(methylsulfonyl)indolin-7-yl)amino)pyrimidin-2-yl)amino)-2-fluorophenyl)piperidin-4-yl)piperazin-1-yl)ethyl)piperidin-1-yl)-2-fluorophenyl)piperidine-2,6-dione], for which the DC50 in assay [1] was found to be 6.5 nM; in assay [2] it was 12.2 nM; in assay [3], 4.3 nM; in assay [4] it was 5.5 nM.
As to `CS(=O)(=O)N1CCc2cccc(Nc3nc(Nc4ccc(N5CCC(N6CCN(C(=O)[C@H]7CCN(c8ccc9c(c8)C(=O)N(C8CCC(=O)NC8=O)C9=O)C7)CC6)CC5)c(F)c4)ncc3Cl)c21` (stereo partly drawn) [Example 82, 5-((S)-3-(4-(1-(4-((5-chloro-4-((1-(methylsulfonyl)indolin-7-yl)amino)pyrimidin-2-yl)amino)-2-fluorophenyl)piperidin-4-yl)piperazine-1-carbonyl)pyrrolidin-1-yl)-2-(2,6-dioxopiperidin-3-yl)isoindoline-1,3-dione], the 50% degradation concentration (DC50) amounted to 3.5 nM in assay [1], 15.1 nM in assay [2], 2.8 nM in assay [3] and 3.2 nM in assay [4].
As for `CS(=O)(=O)N1CCc2cccc(Nc3nc(Nc4ccc(N5CCC(N6CCN(CCC7CCN(c8ccc(C9CCC(=O)NC9=O)cc8)CC7)CC6)CC5)c(F)c4)nc4[nH]ccc34)c21` (centres unmarked) [Example 8, 3-(4-(4-(2-(4-(1-(2-fluoro-4-((4-((1-(methylsulfonyl)indolin-7-yl)amino)-7H-pyrrolo[2,3-d]pyrimidin-2-yl)amino)phenyl)piperidin-4-yl)piperazin-1-yl)ethyl)piperidin-1-yl)phenyl)piperidine-2,6-dione], the 50% degradation concentration (DC50) in assay [1] was found to be 13.4 nM; in assay [2], 8.4 nM; in assay [3], 12.7 nM; in assay [4] it was 9.1 nM.
The corresponding values for `CS(=O)(=O)N1CCc2cccc(Nc3nc(Nc4ccc(N5CCC(N6CCN(CCc7ccc(C8CCC(=O)NC8=O)c(F)c7)CC6)CC5)c5c4OCC5)ncc3Cl)c21` (centres unmarked) [Example 53, 3-(4-(2-(4-(1-(7-((5-chloro-4-((1-(methylsulfonyl)indolin-7-yl)amino)pyrimidin-2-yl)amino)-2,3-dihydrobenzofuran-4-yl)piperidin-4-yl)piperazin-1-yl)ethyl)-2-fluorophenyl)piperidine-2,6-dione] are 21.8 nM, 35.7 nM, 3.7 nM and 2.6 nM.
`CS(=O)(=O)N1CCc2cccc(Nc3nc(Nc4ccc(N5CCC(N6CCN(CC7CN(c8ccc9c(c8)C(=O)N(C8CCC(=O)NC8=O)C9=O)C7)CC6)CC5)c(F)c4)ncc3Cl)c21` (centres unmarked) [Example 76, 5-(3-((4-(1-(4-((5-chloro-4-((1-(methylsulfonyl)indolin-7-yl)amino)pyrimidin-2-yl)amino)-2-fluorophenyl)piperidin-4-yl)piperazin-1-yl)methyl)azetidin-1-yl)-2-(2,6-dioxopiperidin-3-yl)isoindoline-1,3-dione]: the DC50 in assay [1] came out at 4.8 nM; in assay [2], 8 nM; in assay [3], 3.3 nM; in assay [4] it was 3.4 nM.
Take `COc1cc(N2CCC(N3CCN(CC4CN(c5ccc6c(c5)C(=O)N(C5CCC(=O)NC5=O)C6=O)C4)CC3)CC2)ccc1Nc1ncc(Cl)c(Nc2cccc3c2N(S(C)(=O)=O)CC3)n1` (centres unmarked) [Example 86, 5-(3-((4-(1-(4-((5-chloro-4-((1-(methylsulfonyl)indolin-7-yl)amino)pyrimidin-2-yl)amino)-3-methoxyphenyl)piperidin-4-yl)piperazin-1-yl)methyl)azetidin-1-yl)-2-(2,6-dioxopiperidin-3-yl)isoindoline-1,3-dione]: the 50% degradation concentration (DC50) in assay [1] turned out to be 13 nM; in assay [2], 16.2 nM; in assay [3], 2.7 nM; in assay [4], 1.8 nM.
Regarding `CS(=O)(=O)N1CCc2cccc(Nc3nc(Nc4ccc(N5CCC(N6CCN(C(=O)C7CN(c8ccc9c(c8)C(=O)N(C8CCC(=O)NC8=O)C9=O)C7)CC6)CC5)c(F)c4)ncc3Cl)c21` (centres unmarked) [Example 77, 5-(3-(4-(1-(4-((5-chloro-4-((1-(methylsulfonyl)indolin-7-yl)amino)pyrimidin-2-yl)amino)-2-fluorophenyl)piperidin-4-yl)piperazine-1-carbonyl)azetidin-1-yl)-2-(2,6-dioxopiperidin-3-yl)isoindoline-1,3-dione], the DC50 was found to be 1.8 nM in assay [1], 2.7 nM in assay [2], 1.7 nM in assay [3] and 2.3 nM in assay [4].
For `CS(=O)(=O)N1CCc2cccc(Nc3nc(Nc4ccc(N5CCC(N6CCN(CCC7CCN(c8cc(F)c(C9CCC(=O)NC9=O)c(F)c8)CC7)CC6)CC5)c(F)c4)nc4[nH]ccc34)c21` (centres unmarked) [Example 67, 3-(2,6-difluoro-4-(4-(2-(4-(1-(2-fluoro-4-((4-((1-(methylsulfonyl)indolin-7-yl)amino)-7H-pyrrolo[2,3-d]pyrimidin-2-yl)amino)phenyl)piperidin-4-yl)piperazin-1-yl)ethyl)piperidin-1-yl)phenyl)piperidine-2,6-dione], the DC50 in assay [1] stood at 11.7 nM; in assay [2], 15.7 nM; in assay [3] it was 3.5 nM; in assay [4] it was 13.8 nM.
As for `CS(=O)(=O)N1CCc2cccc(Nc3nc(Nc4ccc(N5CCC(N6CCN(CCc7ccc(C8CCC(=O)NC8=O)cc7)CC6)CC5)c(F)c4)ncc3Cl)c21` (centres unmarked) [Example 45, 3-(4-(2-(4-(1-(4-((5-chloro-4-((1-(methylsulfonyl)indolin-7-yl)amino)pyrimidin-2-yl)amino)-2-fluorophenyl)piperidin-4-yl)piperazin-1-yl)ethyl)phenyl)piperidine-2,6-dione], the DC50 in assay [1] stood at 9.9 nM; in assay [2], 17.3 nM; in assay [3] it was 6.7 nM; in assay [4], 2.3 nM.
